According to the NIST ThermoML archive (doi:10.1016/j.jct.2011.04.010):

Columns and labels:
[1] = xn = mol fraction of the nth substance listed; conditions: 101 kPa, Liquid; for speed of sound: 298.15 K, Ecolab MPFU speed of sound meter; for mass density: Vibrating tube method
[2] = molar heat capacity at constant pressure; xn = mol fraction of the nth substance listed; conditions: 298.15 K, 101 kPa, Liquid, Flow calorimetry

COCCO [2-methoxyethan-1-ol] + CC#N
Conditions | molar heat capacity at constant pressure, [2] [J/K/mol] | speed of sound, [1] [m/s]
x1 = 0.0504 | 97.12 | –
x1 = 0.09833 | – | 1281.3
x1 = 0.1006 | 101.84 | –
x1 = 0.1504 | 106.53 | –
x1 = 0.1641 | 107.81 | –
x1 = 0.1936 | – | 1285.5
x1 = 0.1955 | 110.77 | –
x1 = 0.2 | 111.19 | –
x1 = 0.2999 | – | 1292.4
x1 = 0.3003 | 120.53 | –
x1 = 0.3989 | – | 1300.3
x1 = 0.4043 | 129.87 | –
x1 = 0.45 | 133.82 | –
x1 = 0.5007 | 138.04 | –
x1 = 0.5042 | – | 1309.5
x1 = 0.6021 | 146.04 | –
x1 = 0.605 | – | 1318.2
x1 = 0.6287 | 148.03 | –
x1 = 0.6497 | 149.58 | –
x1 = 0.7347 | – | 1328.4
x1 = 0.7453 | 156.4 | –
x1 = 0.7493 | 156.67 | –
x1 = 0.8295 | – | 1334.3
x1 = 0.9064 | 167.3 | –
x1 = 0.9177 | – | 1338.1
x1 = 0.9498 | 170.12 | –
x1 = 1 | 173.25 | 1339.7

mass density [kg/m3], [1]
Conditions | 308.15 K | 318.15 K
x1 = 0.00977 | – | 758.593
x1 = 0.00998 | 768.618 | –
x1 = 0.02023 | – | 761.593
x1 = 0.02137 | 771.87 | –
x1 = 0.0304 | – | 764.483
x1 = 0.03278 | 775.071 | –
x1 = 0.04029 | – | 767.262
x1 = 0.04058 | 777.238 | –
x1 = 0.04893 | – | 769.671
x1 = 0.0505 | 779.979 | –
x1 = 0.05932 | – | 772.54
x1 = 0.06681 | – | 774.593
x1 = 0.06827 | 784.813 | –
x1 = 0.07039 | 785.413 | –
x1 = 0.07541 | 786.728 | –
x1 = 0.07969 | – | 778.086
x1 = 0.091 | – | 781.124
x1 = 0.09332 | 791.503 | –
x1 = 0.1015 | – | 783.904
x1 = 0.1019 | 793.744 | –
x1 = 0.1512 | 806.368 | –
x1 = 0.1516 | – | 796.793
x1 = 0.195 | 817.055 | 807.486
x1 = 0.2495 | 829.827 | –
x1 = 0.2503 | – | 820.48
x1 = 0.2981 | 840.655 | –
x1 = 0.304 | – | 832.469
x1 = 0.4001 | 861.695 | –
x1 = 0.4012 | – | 852.641
x1 = 0.5006 | 880.458 | –
x1 = 0.5007 | – | 871.365
x1 = 0.6017 | 897.597 | –
x1 = 0.6038 | – | 888.921
x1 = 0.7031 | – | 904.33
x1 = 0.7041 | 913.484 | –
x1 = 0.8014 | – | 918.191
x1 = 0.8024 | 927.171 | –
x1 = 0.9034 | – | 931.153
x1 = 0.9066 | 940.325 | –
x1 = 0.9102 | 940.846 | –
x1 = 0.9133 | – | 932.346
x1 = 0.9213 | 942.098 | –
x1 = 0.9235 | – | 933.569
x1 = 0.9316 | 943.319 | –
x1 = 0.935 | – | 934.916
x1 = 0.9417 | 944.49 | –
x1 = 0.9434 | – | 935.911
x1 = 0.9524 | – | 936.96
x1 = 0.9528 | 945.766 | –
x1 = 0.9632 | 946.944 | –
x1 = 0.9635 | – | 938.217
x1 = 0.9702 | 947.731 | –
x1 = 0.9723 | – | 939.208
x1 = 0.9814 | 948.974 | 940.219
x1 = 0.9929 | – | 941.484
x1 = 0.9931 | 950.261 | –
x1 = 1 | 951.01 | 942.253

CC#N [acetonitrile] + COCCO
Conditions | speed of sound [m/s]
[1], x2 = 0 | 1279.6

[1], x2 = 0
Conditions | mass density [kg/m3]
308.15 K | 765.735
318.15 K | 755.763
